From paper PMC6071225 (Viruses, 2018)
Read-outs that look alike come from different tables or passages of the source.

How the values were obtained:
wt NA2009 = assay type: biochemical
[1] = tested on: catalytic domain of wild-type NA2009; assay type: binding; conditions: wt
[2] = 50 mM MES (or ACES), pH 6.15, 25 °C
[3] = 50 mM MES (or ACES), pH 6.15, 25 °C, listed as Oseltamivir

CCC(CC)O[C@@H]1C=C(C(=O)O)C[C@H](N)[C@H]1NC(C)=O [oseltamivir carboxylate]
Fold Ki (wt NA2009; wt NA2009, compared with that of wt NA2009): 1 fold | Ki (wt NA2009; wt NA2009, mean ± s.d., two independent experiments, 37 °C): 24 ± 4 nM | Fold Kd ([1]; compared with that of wt NA2009): 1 fold | Kd [1, 2]: 140 ± 20 nM | ΔG [1, 2]: -9.4 ± 0.1 kcal/mol | ΔH [1, 2]: -10.8 ± 0.1 kcal/mol | −T·ΔS [1, 2]: 1.5 ± 0.2 kcal/mol | ΔG [1, 3]: -9.4 kcal/mol | ΔH [1, 3]: -10.8 kcal/mol | −T·ΔS [1, 3]: 1.5 kcal/mol
